In patent US20260158102A1, “CYCLIC PEPTIDE DERIVATIVE COMPOSITION FOR TREATING OR PREVENTING NEUROPATHIC PAIN AND/OR INFLAMMATORY PAIN” (DKS Co. Ltd., priority 2022, published 2026):

Legend:
[1] = test system: STZ-induced diabetic rats; experiment: von Frey test in rat STZ-induced diabetes model; format: in vivo; details: for 50% withdrawal threshold by von Frey test: mean ± SE, n=10
Method: The activity of the compound of the present disclosure was evaluated according to the following procedure.
(§1) Compound 9 (50 mg/mL) was diluted with water for injection to obtain a 1 mg/mL administration specimen. For the specimens to be administered at 0.1 mg/mL and 0.01 mg/mL, the specimen to be administered at 1 mg/mL was diluted stepwise with water for injection. Each administration specimen was divided into PP disposable tubes every day and stored in a storehouse (freezer: MDF-MU339H-PJ, PHC Corporation) under the condition of freezing (−30° C. to −20° C., measured value: −26.4 to −24.5° C.). Preparation was performed on the day before the start of administration.
(§2) Water for injection was added to and dissolved in Pregabalin taken out from the capsule to obtain 2 mg/mL. It was prepared before use.
(§3) • Animal species: rat (SPF) • Strain: Crl: CD (SD) • Date of animal acquisition, gender, age in weeks, number of animals acquired, and weight range after 1 day of acquisition • First and second courses: Apr. 6, 2022, male, 7 weeks old, 35 animals, 217 to 237 g • Third and fourth courses: Apr. 13, 2022, male, 7 weeks old, 35 animals, 216 to 235 g • Source: […].
Among the animals having a 50% withdrawal threshold of 8 g or more in the von Frey test measured during the preliminary breeding period, two animals from young animals with animal numbers were assigned to non-diabetes-induced animals, and the remaining animals were assigned to diabetes-induced animals.
Among the diabetes-induced animals, animals having a blood glucose level of 300 mg/dL or less were excluded from the grouping subjects, and were grouped using a computer program (IBUKI, Nihon Bioresearch Center, Inc.) so that the body weight and the average blood glucose level of each group were approximately equal. That is, the animals for the first and second courses and the third and fourth courses were grouped into one non-diabetes animal for Group 1, and 5 […] animals for Groups 2 to 6. Note that the grouping was performed so that there were 4 examples in Group 1 and 10 examples in each of Groups 2 to 6.
• Administration method: Using a syringe (Terumo Corporation) equipped with a 25 G winged injection needle (Terumo Corporation), tail vein administration was performed. Note that a 0.75 mmol/L CAB solution was administered to a non-diabetes-induced control group.
(§4) • Dose volume: calculated at 2 mL/kg based on the body weight on the day of administration. • Number of times of administration: once • Day of administration: 7 days before the day of starting administration of the test substance.
• Administration method: Using a syringe (Terumo Corporation) equipped with a 25 G winged injection needle (Terumo Corporation), tail vein administration was performed. Note that physiological saline was administered to the non-diabetes control group and the diabetes control group.
(§5) • Dose volume: calculated at 1 mL/kg based on the body weight on the day of administration. • Number of times of administration: 9 times • Interval of administration: once every 3 days (evaluation was performed on the day after administration) • Day of starting administration: day 8 of STZ administration (day of STZ administration is counted as day 1).
• Administration method: Using a polypropylene disposable syringe (Terumo Corporation) equipped with a metal oral zonde for a rat (Fuchigami kikai Ltd.), forced oral administration was performed.
• Dose volume: calculated at 10 mL/kg based on the body weight on the day of administration. • Number of times of administration: Administration was performed once on the day of evaluation of neuropathic pain, twice in total, and on the other days of administration, a vehicle for a control substance (water for injection) was orally administered. […]

[2] = Body weight measurement in rat STZ-induced diabetes model; format: in vivo; details: 20 mg/kg oral, mean ± SE, in g (unit assumed)
Method: as §1, §2, §3, §4, §5
• Dose volume: calculated at 10 mL/kg based on the body weight on the day of administration. • Number of times of administration: Administration was performed once on the day of evaluation of neuropathic pain, twice in total, and on the other days of administration, a vehicle for a control substance (water for injection) was orally administered.
• Measurement was performed every day after the day of STZ administration.
The mean and standard error of each group were calculated for the 50% withdrawal threshold, body weight, and blood glucose level.
The body weight was an integer.
No significant difference test of body weight and blood glucose levels was performed.

SMILES: CC(C)C[C@H](CN)CC(=O)O [Pregabalin, reference compound]
- 50% withdrawal threshold by von Frey test ([1]; 20 mg/kg oral group, Pre: before STZ administration): 12.7 ± 0.7 g
- 50% withdrawal threshold by von Frey test ([1]; 20 mg/kg oral, 3 hours after administration, day 14 of STZ administration): 14.5 ± 0.5 g
- 50% withdrawal threshold by von Frey test ([1]; 20 mg/kg oral, 3 hours after administration, day 28 of STZ administration): 14.1 ± 0.7 g
- change in the 50% withdrawal threshold (von Frey test) ([1]; 20 mg/kg oral, both 14 days and 28 days after STZ administration, as compared with the diabetes control group): significant increase
- Body weight ([2]; day 1 of STZ administration): 293 ± 5
- Body weight ([2]; day 2 of STZ administration): 278 ± 5
- Body weight ([2]; day 3 of STZ administration): 272 ± 5
- Body weight ([2]; day 4 of STZ administration): 275 ± 4
- Body weight ([2]; day 5 of STZ administration): 280 ± 4
- Body weight ([2]; day 6 of STZ administration): 282 ± 4
- Body weight ([2]; day 7 of STZ administration): 288 ± 4
- Body weight ([2]; day 8 of STZ administration): 285 ± 4
- Body weight ([2]; day 9 of STZ administration): 289 ± 4
- Body weight ([2]; day 10 of STZ administration): 291 ± 5
- Body weight ([2]; day 11 of STZ administration): 297 ± 4
- Body weight ([2]; day 12 of STZ administration): 297 ± 5
- Body weight ([2]; day 13 of STZ administration): 298 ± 5
- Body weight ([2]; day 14 of STZ administration): 302 ± 6
- Body weight ([2]; day 15 of STZ administration): 297 ± 4
- Body weight ([2]; day 16 of STZ administration): 300 ± 5
- Body weight ([2]; day 17 of STZ administration): 304 ± 5
- Body weight ([2]; day 18 of STZ administration): 303 ± 5
- Body weight ([2]; day 19 of STZ administration): 302 ± 6
- Body weight ([2]; day 20 of STZ administration): 308 ± 5
- Body weight ([2]; day 21 of STZ administration): 305 ± 6
- Body weight ([2]; day 22 of STZ administration): 309 ± 5
- Body weight ([2]; day 23 of STZ administration): 307 ± 7
- Body weight ([2]; day 24 of STZ administration): 305 ± 7
- Body weight ([2]; day 25 of STZ administration): 307 ± 6
- Body weight ([2]; day 26 of STZ administration): 309 ± 6
- Body weight ([2]; day 27 of STZ administration): 304 ± 7
- Body weight ([2]; day 28 of STZ administration): 307 ± 7
- Body weight ([2]; day 29 of STZ administration): 302 ± 7
- Body weight ([2]; day 30 of STZ administration): 302 ± 7
- Body weight ([2]; day 31 of STZ administration): 304 ± 8
- Body weight ([2]; day 32 of STZ administration): 305 ± 8
- Body weight ([2]; day 33 of STZ administration): 307 ± 8
- Body weight ([2]; day 34 of STZ administration): 306 ± 7
- Body weight ([2]; day 35 of STZ administration): 307 ± 7
